Assay results taken from ChEMBL document CHEMBL1201862, “PubChem BioAssay data set” (2004).
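48-hour exposure; five concentrations; linearly interpolated endpoints. At the GI50, growth is halved.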 Activity calls are given as the source filed them. No stated cut-off is given here; in the data, active = GI50 up to about 1.1 µM and inactive = higher.

Assays:
Test in all cases: DTP human tumour cell line panel, 48 h
786-0 = system: 786-0
A498 = system: A498
A549 = system: A549
ACHN = system: ACHN
BT-549 = system: BT-549
CAKI-1 = system: CAKI-1
CCRF-CEM = system: CCRF-CEM
COLO 205 = system: COLO 205
DU-145 = system: DU-145
EKVX = system: EKVX
HCC 2998 = system: HCC 2998
HCT-116 = system: HCT-116
HCT-15 = system: HCT-15
HL-60 = system: HL-60
HOP-62 = system: HOP-62
HOP-92 = system: HOP-92
HT-29 = system: HT-29
Hs-578T = system: Hs-578T
IGROV-1 = system: IGROV-1
K562 = system: K562
KM12 = system: KM12
LOX IMVI = system: LOX IMVI
M14 = system: M14
MCF7 = system: MCF7
MDA-MB-231 = system: MDA-MB-231
MDA-MB-435 = system: MDA-MB-435
MDA-N = system: MDA-N
Malme-3M = system: Malme-3M
NCI-H226 = system: NCI-H226
NCI-H23 = system: NCI-H23
NCI-H522 = system: NCI-H522
NCI/ADR-RES = system: NCI/ADR-RES
OVCAR-3 = system: OVCAR-3
OVCAR-4 = system: OVCAR-4
OVCAR-5 = system: OVCAR-5
OVCAR-8 = system: OVCAR-8
PC-3 = system: PC-3
RPMI-8226 = system: RPMI-8226
RXF 393 = system: RXF 393
SF-268 = system: SF-268
SF-295 = system: SF-295
SF-539 = system: SF-539
SK-MEL-28 = system: SK-MEL-28
SK-MEL-2 = system: SK-MEL-2
SK-MEL-5 = system: SK-MEL-5
SN12C = system: SN12C
SNB-19 = system: SNB-19
SW-620 = system: SW-620
T47D = system: T47D
TK-10 = system: TK-10
U-251 = system: U-251
UACC-257 = system: UACC-257
UACC-62 = system: UACC-62
UO-31 = system: UO-31
NCI-H460 = system: NCI-H460
SK-OV-3 = system: SK-OV-3
SNB-75 = system: SNB-75
MOLT-4 = system: MOLT-4
SR = system: SR

CC(C)(C)OC(=O)NCC(c1c[nH]c2ccc(Br)cc12)c1c[nH]c2ccc(Br)cc12
GI50 (786-0): 3.85 µM (inactive) | GI50 (A498): 14.5 µM (inactive) | GI50 (A549): 5.18 µM (inactive) | GI50 (ACHN): 5.96 µM (inactive) | GI50 (BT-549): 12.4 µM (inactive) | GI50 (CAKI-1): 11 µM (inactive) | GI50 (CCRF-CEM): 5.12 µM (inactive) | GI50 (COLO 205): 5 µM (inactive) | GI50 (DU-145): 11.7 µM (inactive) | GI50 (EKVX): 4.52 µM (inactive) | GI50 (HCC 2998): 5.18 µM (inactive) | GI50 (HCT-116): 4.14 µM (inactive) | GI50 (HCT-15): 7.73 µM | GI50 (HL-60): 11.7 µM (inactive) | GI50 (HOP-62): 12.7 µM (inactive) | GI50 (HOP-92): 3.76 µM (inactive) | GI50 (HT-29): 3.34 µM (inactive) | GI50 (Hs-578T): 19.3 µM (inactive) | GI50 (IGROV-1): 4.07 µM (inactive) | GI50 (K562): 15.9 µM (inactive) | GI50 (KM12): 4.16 µM (inactive) | GI50 (LOX IMVI): 7.03 µM (inactive) | GI50 (M14): 3.56 µM (inactive) | GI50 (MCF7): 5.41 µM (inactive) | GI50 (MDA-MB-231): 10.5 µM (inactive) | GI50 (MDA-MB-435): 11.7 µM (inactive) | GI50 (MDA-N): 8.63 µM (inactive) | GI50 (Malme-3M): 18.3 µM (inactive) | GI50 (NCI-H226): 16.6 µM (inactive) | GI50 (NCI-H23): 4.33 µM (inactive) | GI50 (NCI-H522): 10.7 µM (inactive) | GI50 (NCI/ADR-RES): 6.82 µM (inactive) | GI50 (OVCAR-3): 4.54 µM (inactive) | GI50 (OVCAR-4): 7.36 µM (inactive) | GI50 (OVCAR-5): 7.48 µM (inactive) | GI50 (OVCAR-8): 13.4 µM (inactive) | GI50 (PC-3): 3.55 µM (inactive) | GI50 (RPMI-8226): > 100 µM (inactive) | GI50 (RXF 393): 11.6 µM (inactive) | GI50 (SF-268): 8.43 µM (inactive) | GI50 (SF-295): 9.89 µM (inactive) | GI50 (SF-539): 14.4 µM (inactive) | GI50 (SK-MEL-28): 16.3 µM (inactive) | GI50 (SK-MEL-2): 8.04 µM (inactive) | GI50 (SK-MEL-5): 6.38 µM (inactive) | GI50 (SN12C): 5.13 µM (inactive) | GI50 (SNB-19): 11.2 µM (inactive) | GI50 (SW-620): 6.64 µM (inactive) | GI50 (T47D): 10 µM (inactive) | GI50 (TK-10): 12.6 µM (inactive) | GI50 (U-251): 6.43 µM (inactive) | GI50 (UACC-257): 13 µM (inactive) | GI50 (UACC-62): 11.1 µM (inactive) | GI50 (UO-31): 7.11 µM (inactive)

CC(=O)C1(/N=N/c2ccc(S(N)(=O)=O)cc2)CCOC1=O (centres undefined)
GI50 (786-0): > 100 µM (inactive) | GI50 (A498): > 100 µM (inactive) | GI50 (A549): > 100 µM (inactive) | GI50 (ACHN): > 100 µM (inactive) | GI50 (BT-549): > 100 µM (inactive) | GI50 (CAKI-1): > 100 µM (inactive) | GI50 (CCRF-CEM): > 100 µM (inactive) | GI50 (COLO 205): > 100 µM (inactive) | GI50 (DU-145): > 100 µM (inactive) | GI50 (EKVX): > 100 µM (inactive) | GI50 (HCT-116): > 100 µM (inactive) | GI50 (HCT-15): > 100 µM | GI50 (HL-60): 64.6 µM (inactive) | GI50 (HOP-62): > 100 µM (inactive) | GI50 (HOP-92): > 100 µM (inactive) | GI50 (HT-29): > 100 µM (inactive) | GI50 (Hs-578T): > 100 µM (inactive) | GI50 (IGROV-1): > 100 µM (inactive) | GI50 (KM12): > 100 µM (inactive) | GI50 (LOX IMVI): > 100 µM (inactive) | GI50 (M14): > 100 µM (inactive) | GI50 (MCF7): > 100 µM (inactive) | GI50 (MDA-MB-231): > 100 µM (inactive) | GI50 (MDA-MB-435): > 100 µM (inactive) | GI50 (MDA-N): > 100 µM (inactive) | GI50 (Malme-3M): > 100 µM (inactive) | GI50 (NCI-H226): > 100 µM (inactive) | GI50 (NCI-H23): > 100 µM (inactive) | GI50 (NCI-H460): > 100 µM (inactive) | GI50 (NCI-H522): > 100 µM (inactive) | GI50 (NCI/ADR-RES): > 100 µM (inactive) | GI50 (OVCAR-3): > 100 µM (inactive) | GI50 (OVCAR-4): > 100 µM (inactive) | GI50 (OVCAR-5): > 100 µM (inactive) | GI50 (OVCAR-8): > 100 µM (inactive) | GI50 (PC-3): > 100 µM (inactive) | GI50 (RXF 393): > 100 µM (inactive) | GI50 (SF-268): > 100 µM (inactive) | GI50 (SF-295): > 100 µM (inactive) | GI50 (SF-539): > 100 µM (inactive) | GI50 (SK-MEL-28): > 100 µM (inactive) | GI50 (SK-MEL-2): > 100 µM (inactive) | GI50 (SK-MEL-5): > 100 µM (inactive) | GI50 (SK-OV-3): > 100 µM (inactive) | GI50 (SN12C): > 100 µM (inactive) | GI50 (SNB-19): > 100 µM (inactive) | GI50 (SNB-75): > 100 µM (inactive) | GI50 (SW-620): > 100 µM (inactive) | GI50 (T47D): > 100 µM (inactive) | GI50 (TK-10): > 100 µM (inactive) | GI50 (U-251): > 100 µM (inactive) | GI50 (UACC-257): > 100 µM (inactive) | GI50 (UACC-62): > 100 µM (inactive) | GI50 (UO-31): > 100 µM (inactive)

CCC1(CC)C(=O)N(C(=O)c2ccc(Cl)cc2)N(C(=O)c2ccccc2Cl)C1=O
GI50 (786-0): 56.8 µM (inactive) | GI50 (A549): > 100 µM (inactive) | GI50 (ACHN): 36.1 µM (inactive) | GI50 (BT-549): 67.9 µM (inactive) | GI50 (CAKI-1): > 100 µM (inactive) | GI50 (CCRF-CEM): 40.8 µM (inactive) | GI50 (COLO 205): > 100 µM (inactive) | GI50 (DU-145): > 100 µM (inactive) | GI50 (EKVX): 4.58 µM (inactive) | GI50 (HCC 2998): > 100 µM (inactive) | GI50 (HCT-116): 31.6 µM (inactive) | GI50 (HCT-15): 41 µM | GI50 (HL-60): 37.7 µM (inactive) | GI50 (HOP-62): 46 µM (inactive) | GI50 (HT-29): 10.7 µM (inactive) | GI50 (Hs-578T): 43.5 µM (inactive) | GI50 (IGROV-1): 3.5 µM (inactive) | GI50 (K562): 45.7 µM (inactive) | GI50 (KM12): 52.8 µM (inactive) | GI50 (LOX IMVI): 21 µM (inactive) | GI50 (M14): > 100 µM (inactive) | GI50 (MCF7): 43.1 µM (inactive) | GI50 (MDA-MB-231): 50.5 µM (inactive) | GI50 (MDA-MB-435): 11.2 µM (inactive) | GI50 (MDA-N): 39.7 µM (inactive) | GI50 (MOLT-4): 20.6 µM (inactive) | GI50 (Malme-3M): 35.7 µM (inactive) | GI50 (NCI-H226): 16.2 µM (inactive) | GI50 (NCI-H23): 32.1 µM (inactive) | GI50 (NCI-H460): 19.3 µM (inactive) | GI50 (NCI-H522): 14.4 µM (inactive) | GI50 (NCI/ADR-RES): 28.3 µM (inactive) | GI50 (OVCAR-3): 27.1 µM (inactive) | GI50 (OVCAR-4): > 100 µM (inactive) | GI50 (OVCAR-5): > 100 µM (inactive) | GI50 (OVCAR-8): 89.9 µM (inactive) | GI50 (PC-3): > 100 µM (inactive) | GI50 (RPMI-8226): 25.8 µM (inactive) | GI50 (RXF 393): > 100 µM (inactive) | GI50 (SF-268): 35.4 µM (inactive) | GI50 (SF-295): 63.5 µM (inactive) | GI50 (SK-MEL-28): 98.4 µM (inactive) | GI50 (SK-MEL-2): > 100 µM (inactive) | GI50 (SK-MEL-5): 75 µM (inactive) | GI50 (SK-OV-3): > 100 µM (inactive) | GI50 (SN12C): 45.1 µM (inactive) | GI50 (SNB-19): 66.1 µM (inactive) | GI50 (SNB-75): 16.1 µM (inactive) | GI50 (SR): 34.9 µM (inactive) | GI50 (SW-620): 29.4 µM (inactive) | GI50 (T47D): 62.7 µM (inactive) | GI50 (TK-10): 31.2 µM (inactive) | GI50 (U-251): 33.3 µM (inactive) | GI50 (UACC-257): > 100 µM (inactive) | GI50 (UACC-62): 85.3 µM (inactive) | GI50 (UO-31): > 100 µM (inactive)
